# Data as given in US6562803B2, “Hair-growing agent” (Kyowa Hakko Kogyo Co., Ltd., priority 2001, dated 2003).
# Test system: mouse hair follicle epithelial cells
# Assay: Cell growth-promoting effect on cultured mouse hair follicle epithelial cells (MTT)
# Type: cell-based
# Conditions: cultured 5 days, absorbance at 570 nm, control DMSO alone = 100
# Description: The skin on the back of a 4-days-old C3H mouse (Charles River Japan, Inc.) was cut off and treated with MEM (Eagle's Minimum Essential Medium) containing 500 units/ml Dispase (Godo Shusei Co., Ltd.) and 5% fetal calf serum (FCS) at 4° C. for 16 hours.
# The dermis suspension was filtered through a 212-μm nylon mesh (Nippon Rikagaku Kikai Co., Ltd.) and the filtrate was centrifuged at 1000 rpm for 5 minutes to obtain pellets containing hair follicle tissue. To the pellets was added calcium/magnesium-free PBS (Dulbecco's Phosphate-Buffered Saline) and the pellets were suspended therein using a pipette. The resulting suspension was allowed to stand for 15 minutes to precipitate hair follicle tissue. The same procedure as above (addition of calcium/magnesium-free PBS, suspending by use of a pipette, and precipitation by allowing the suspension to stand for 15 minutes) was repeated three times using the obtained hair follicle tissue.
# To the resulting mixture was added DMEM containing 10% FCS to prepare a hair follicle tissue cell suspension having a density of 3×10^5 cells/ml. The hair follicle tissue cell suspension was put into wells of a 24-well collagen-coated plate (Iwaki Glass Co., Ltd.) in an amount of 1 ml/well, followed by culturing in 5% CO2 at 37° C. for 24 hours.
# During the culturing, the medium was replaced with a fresh one every other day.
# The degree of cell growth was measured according to the method using MTT [3-(4,5-dimethylthiazol-2-yl)-2,5-diphenyl tetrazolium bromide]
# To each well of the 24-well microplate (2 cm^2/well) was added a PBS solution of MTT (5 mg/ml) in an amount of 1/10 by volume based on 1 ml of the culture. The plate was shaken to make the mixture homogeneous, followed by culturing in 5% CO2 at 37° C. for 4 hours. Four hours later, the culture was sucked and 1 ml of a 0.04 mol/l solution of HCl in isopropyl alcohol was added to each well to completely dissolve formazan formed in the wells.
# The degree of cell growth was determined by measuring the absorbance at 570 nm based on that at 650 nm as a control.
Structure (SMILES),Relative cell growth rate based on the control as 100 (1 μmol/l),Relative cell growth rate based on the control as 100 (30 μmol/l)
CCCCCCCC/C=C\CCCCCCCC(=O)OCC(COP(=O)(O)O)OC(C)=O (stereo not drawn) [1-O-oleoyl-2-O-acetylglyceryl-3-phosphoric Acid],327,–
"Oc1cc(O)c2c(c1)O[C@H](c1ccc(O)c(O)c1)[C@H](O)[C@H]2c1c(O)cc(O)c2c1O[C@H](c1ccc(O)c(O)c1)[C@H](O)C2 [Procyanidin B-2, epicatechin-(4β→8)-epicatechin]",–,295
"Cc1c(C)c2c(c(C)c1O)CCC(C)(CCCC(C)CCCC(C)CCCC(C)C)O2 (racemic) [dl-α-Tocopherol, dl-α-tocopherol]",–,178
